{"source": "paper PMC5781198", "about": "(Influenza and Other Respiratory Viruses, 2013)", "key": {"[1]": {"test_system": "A/Puerto Rico/34/2011 NA (D151D/G/N)", "type": "biochemical, Influenza A(H3N2) virus"}, "[2]": {"test_system": "influenza A(H1N1)pdm09 viruses, neuraminidase (NA)", "type": "biochemical, Influenza A(H1N1)pdm09 virus"}, "[3]": {"test_system": "influenza B Victoria lineage viruses, neuraminidase (NA)", "type": "biochemical, Influenza B virus (Victoria lineage)"}, "[4]": {"test_system": "influenza A(H3N2) viruses, neuraminidase (NA)", "type": "biochemical, Influenza A(H3N2) virus"}, "[5]": {"test_system": "influenza B viruses, neuraminidase (NA)", "type": "biochemical, Influenza B virus"}}}
{"compound": "CCC(CC)[C@H](NC(C)=O)[C@@H]1[C@H](O)[C@@H](C(=O)O)C[C@H]1N=C(N)N", "note": "[Peramivir, peramivir]", "values": [{"measurement": "fold difference in IC50", "setting": "[1]", "value": "0·08 (1) fold"}, {"measurement": "sensitivity compared with the other three NAIs", "setting": "[2]", "value": "fourfold more sensitive"}, {"measurement": "susceptibility of A(H1N1)pdm09 viruses compared with A(H3N2) viruses", "setting": "[2]", "value": "approximately twofold more sensitive"}, {"measurement": "difference in IC50 between Victoria and Yamagata lineage viruses", "setting": "[3]", "value": "no apparent differences"}, {"measurement": "sensitivity compared with zanamivir and laninamivir", "setting": "[4]", "value": "threefold more sensitive"}]}
{"compound": "[H]/N=C(\\N)N[C@H]1C=C(C(=O)O)O[C@@H]([C@H](OC)[C@H](O)CO)[C@@H]1NC(C)=O", "note": "[Laninamivir, laninamivir]", "values": [{"measurement": "IC50 of outliers relative to the mean IC50 for the drug", "setting": "[2]", "value": "approximately twofold more"}, {"measurement": "susceptibility in words", "setting": "[2]", "value": "showed sensitivity to the drug"}, {"measurement": "susceptibility of A(H1N1)pdm09 viruses compared with A(H3N2) viruses", "setting": "[2]", "value": "approximately twofold more sensitive"}, {"measurement": "difference in IC50 between Victoria and Yamagata lineage viruses", "setting": "[3]", "value": "no apparent differences"}, {"measurement": "IC50 of outliers relative to the mean IC50 for the drug", "setting": "[4]", "value": "approximately twofold more"}, {"measurement": "susceptibility in words", "setting": "[4]", "value": "showed sensitivity to the drug"}, {"measurement": "susceptibility in words", "setting": "[5]", "value": "showed sensitivity to the drug"}]}
{"compound": "CC(=O)N[C@H]1[C@H]([C@H](O)[C@H](O)CO)OC(C(=O)O)=C[C@@H]1N=C(N)N", "note": "[Zanamivir, zanamivir]", "values": [{"measurement": "susceptibility in words", "setting": "[2]", "value": "all showed sensitivity to the drug"}, {"measurement": "susceptibility of A(H1N1)pdm09 viruses compared with A(H3N2) viruses", "setting": "[2]", "value": "approximately twofold more sensitive"}, {"measurement": "difference in IC50 between Victoria and Yamagata lineage viruses", "setting": "[3]", "value": "no apparent differences"}, {"measurement": "susceptibility in words", "setting": "[5]", "value": "showed sensitivity to the drug"}]}
